Test results taken from paper PMC10147685, “Safety, tolerability, and pharmacokinetics of Aurora kinase B inhibitor AZD2811: a phase 1 dose-finding study in patients with advanced solid tumours” (British Journal of Cancer, 2023).

Experiments:
[1] = tested on: LS- or ES-SCLC; settings: cited from earlier work
[2] = tested on: patients with advanced solid tumours; assay: Phase 1 dose-escalation: safety, DLTs, AEs (CTCAE v4.03); type: in vivo
Experimental: AZD2811 was administered as an IV infusion over 2 h. The study included 12 dose-escalation cohorts. In Cohorts 1–6, dosing took place on Days 1 and 4 of a 28-day cycle, at 15 mg, 25 mg, 38 mg, 51 mg, 100 mg, and 200 mg. In Cohort 1, the starting dose was to be administered to a single patient on Days 1 and 4. […] Starting with Cohort 2, at least 3 evaluable patients were enrolled at each dose level (3 + 3 design) and were evaluated for 1 cycle before escalation to the next dose level. If one patient experienced a DLT, an additional 3 patients were treated with the same dose. Therefore, a maximum of 6 evaluable patients could be enrolled per dose level.
In Cohort 7, the Day 4 dose was removed from the schedule, and patients received AZD2811 200 mg on Day 1 of a 28-day cycle. Granulocyte colony-stimulating factor (G-CSF; filgrastim [short-acting G-CSF] or pegfilgrastim [long-acting G-CSF]) as primary prophylaxis for neutropenia was optional in Cohorts 7–9. In Cohorts 8–12, the cycle length was reduced, so dosing occurred on Day 1 of a 21-day cycle, at doses of 200–600 mg. Patients in Cohorts 10–12 received mandatory G-CSF on Day 8 after dosing in Cycle 1 as primary prophylaxis for neutropenia. PEGylated G-CSF (e.g. pegfilgrastim) could not be given later than Day 8 (in a 21-day cycle) due to its long half-life. G-CSF had to be discontinued at least 48 h prior to the next dose of AZD2811.
A DLT was defined as any of the following toxicities that occurred during the DLT evaluation period (the first 28 days [if a 28-day cycle] or the first 21 days [if a 21-day cycle] from the start of AZD2811), unless unequivocally due to underlying malignancy or an extraneous cause: grade 4 neutropenia for >7 days or febrile neutropenia; grade 4 thrombocytopenia or grade 3 thrombocytopenia associated with bleeding; concurrent grade ≥3 elevation of total bilirubin, alanine aminotransferase (ALT), aspartate aminotransferase (AST) or alkaline phosphatase (ALP) lasting >48 h, or any change in liver function test results consistent with Hy’s Law; any grade ≥3 non-haematological AE (except grade 3 nausea, vomiting, stomatitis and/or diarrhoea that was controlled within 4 days with standard supportive care, or grade 3 elevations in ALT/AST that return to meet initial eligibility criteria within 7 days of study drug interruption); inability to receive all doses in Cycle 1 due to treatment-related toxicity; or grade ≥2 non-haematological toxicity at any time during treatment that was deemed to be dose-limiting by the investigator and the medical monitor.
AEs were assessed throughout the treatment and follow-up periods. Patients were followed until all treatment-related toxicity resolved, or for at least 30 days post-study drug discontinuation. AEs were graded according to CTCAE v4.03. Venous blood samples (4 mL) for measurement of AZD2811 concentrations were collected at Cycle 1 Days 1–6, 8, 15, 16, and 22 and Cycle 2 Day 1 in Cohorts 1–6; Cycle 1 Days 1, 4, 8, 12, and 22 in Cohort 7; Cycle 1 Days 1, 4, 8, 12, and 15 and Cycle 2 Day 1 in Cohorts 8–12. Tumour imaging assessments using computed tomography or magnetic resonance imaging of the chest and abdomen/pelvis were performed at screening (≤28 days prior to initiation of treatment), and then every 2 cycles.
The safety analysis set comprised all patients who received at least one dose of AZD2811. The PK analysis set comprised all patients who received at least one dose of AZD2811 with at least one reportable concentration. […] There was no formal statistical analysis of safety and efficacy data. The numbers of patients experiencing each AE were summarised by Medical Dictionary for Regulatory Activities (MedDRA) version 22.1 system organ class, MedDRA preferred term, and CTCAE grade. The ORR and best overall response based on RECIST 1.1 were summarised. AZD2811 blood concentrations and derived PK parameters were summarised by dose regimen. […]

For `CCN(CCO)CCCOc1ccc2c(Nc3cc(CC(=O)Nc4cccc(F)c4)n[nH]3)ncnc2c1` [AZD2811, AZD1152 hydroxyquinazoline pyrazole anilide], the “Patients with SD” value ([1]; 200 mg AZD2811 on Days 1 and 4 every 28 days, 5/15 patients) is listed as 33.3%, the Objective responses ([1]; 200 mg AZD2811 on Days 1 and 4 every 28 days, 15 patients) is listed as “no objective responses” and the “Septic shock due to pneumonia with grade 4 neutropenia, patients” value ([1]; without prophylactic G-CSF, 1 of 15 patients) is listed as 6.7%. For the same molecule, the “Febrile neutropenia, patients” value ([1]; without prophylactic G-CSF, 6 of 15 patients) was 40.0%, the “Target-related grade ≥3 neutropenia, patients” value ([1]; without prophylactic G-CSF, 9/15 patients) was 60.0% and the MTD/RP2D ([2]; Day 1 of a 21-day cycle with mandatory G-CSF on Day 8) was 500 mg. The “Dose reduction due to AZD2811-related AEs, patients” value ([2]; human, in vivo) was 4.5%, the “Dose reductions due to AZD2811-related AEs, patients” value ([2]; human, in vivo) was 17.2% and the “Doses at which ANC counts <500 cells/μL were observed” value ([2]; human, in vivo) was at least 200 mg/cycle. The “Doses that elicit a pharmacological response in bone marrow” value ([2]; human, in vivo) was over 200 mg/cycle, the Neutropenia ([2]; in vivo) was “not observed” and the “Patients with dose-limiting toxicities” value ([2]; in vivo) was “Five”. The “Deaths due to AEs on treatment” value ([2]; not considered related to AZD2811: cardiac arrest (Cohort 9), sepsis (Cohort 11)) was “Two”.
